Measurements: ChEMBL document CHEMBL1641420, “Discovery of pyrazolo[1,5-a]pyrimidine-based CHK1 inhibitors: a template-based approach--part 1” (Bioorg Med Chem Lett, 2011)

Experiments:
[1] = target: Cyclin-dependent kinase 2/cyclin A (Homo sapiens, UniProt P24941); experiment: Inhibition of CDK2/cyclin A; assay type: protein-complex assay
[2] = target: T1, Serine/threonine-protein kinase Chk1 (Homo sapiens, UniProt O14757); experiment: Inhibition of recombinant His-CHK1 expressed in baculovirus after 2 hrs by scintillation proximity assay
T1 sequence (O14757 whole entry): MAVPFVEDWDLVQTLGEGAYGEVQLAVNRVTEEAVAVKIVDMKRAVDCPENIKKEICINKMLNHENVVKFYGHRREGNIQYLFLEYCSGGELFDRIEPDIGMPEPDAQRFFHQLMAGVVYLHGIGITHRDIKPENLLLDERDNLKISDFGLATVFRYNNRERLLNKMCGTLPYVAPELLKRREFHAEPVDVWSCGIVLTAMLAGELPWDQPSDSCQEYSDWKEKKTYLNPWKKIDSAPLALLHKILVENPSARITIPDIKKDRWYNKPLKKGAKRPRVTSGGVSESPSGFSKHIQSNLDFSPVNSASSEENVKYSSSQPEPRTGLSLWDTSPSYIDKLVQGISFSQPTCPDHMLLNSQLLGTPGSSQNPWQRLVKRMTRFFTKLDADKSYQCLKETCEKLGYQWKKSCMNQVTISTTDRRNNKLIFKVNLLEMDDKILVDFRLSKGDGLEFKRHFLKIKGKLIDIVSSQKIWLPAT

[3] = Selectivity ratio, ratio of IC50 for CDK2/cyclin A to IC50 for recombinant His-CHK1

Cc1nc2cc(Nc3cc(C4CCCNC4)nc4c(-c5cnn(C)c5)cnn34)ccc2s1 (configuration not stated)
IC50 [1]: > 50 µM
IC50 [2]: 0.61 µM

Cn1cc(-c2cnn3c(Nc4ccccn4)cc(C4CCCNC4)nc23)cn1 (configuration not stated)
IC50 [1]: > 50 µM
IC50 [2]: 0.028 µM

Nc1cc(C2CCCNC2)nc2c(-c3cnccn3)cnn12 (configuration not stated)
IC50 [1]: 1.2 µM
IC50 [2]: 0.29 µM

Cc1cc(Nc2cc(C3CCCNC3)nc3c(-c4cnn(C)c4)cnn23)no1 (configuration not stated)
IC50 [1]: > 50 µM
IC50 [2]: 0.021 µM

Nc1cc(C2CCCNC2)nc2c(-c3ccoc3)cnn12 (configuration not stated)
IC50 [2]: 0.82 µM

CC#Cc1cnn2c(N)cc(C3CCCNC3)nc12 (configuration not stated)
IC50 [1]: 0.08 µM
IC50 [2]: 18 µM

CNc1cc(C2CCCNC2)nc2c(-c3cnn(C)c3)cnn12 (configuration not stated)
IC50 [1]: > 50 µM
IC50 [2]: 0.14 µM

N#Cc1cnn2c(N)cc(C3CCCNC3)nc12 (configuration not stated)
IC50 [1]: 0.81 µM
IC50 [2]: 2.1 µM

Cc1cc(Nc2cc(C3CCCNC3)nc3c(-c4cnn(C)c4)cnn23)sn1 (configuration not stated)
IC50 [1]: 40 µM

Cn1cc(-c2cnn3c(NCCO)cc(C4CCCNC4)nc23)cn1 (configuration not stated)
IC50 [1]: > 50 µM
IC50 [2]: 0.86 µM

Nc1cc(C2CCCNC2)nc2c(-c3ccsc3)cnn12 (configuration not stated)
IC50 [1]: 0.59 µM
IC50 [2]: 1.1 µM

Cn1cc(-c2cnn3c(Nc4ccc5c(c4)OCO5)cc(C4CCCNC4)nc23)cn1 (configuration not stated)
IC50 [1]: > 50 µM
IC50 [2]: 0.39 µM

Nc1cc(C2CCCNC2)nc2c(-c3cscn3)cnn12 (configuration not stated)
IC50 [2]: > 50 µM

Nc1cc(C2CCCNC2)nc2ccnn12 (configuration not stated)
IC50 [1]: 7.8 µM
IC50 [2]: 36 µM

CCOC(=O)c1cnn2c(N)cc(C3CCCNC3)nc12 (configuration not stated)
IC50 [2]: > 50 µM

Cn1cc(-c2cnn3c(Nc4nncs4)cc(C4CCCNC4)nc23)cn1 (configuration not stated)
IC50 [1]: > 50 µM
IC50 [2]: 2.2 µM

Nc1cc(C2CCCNC2)nc2c(-c3cccs3)cnn12 (configuration not stated)
IC50 [1]: 0.69 µM
IC50 [2]: 1.3 µM

Nc1cc(C2CCCNC2)nc2c(-c3ccn[nH]3)cnn12 (configuration not stated)
IC50 [1]: 2.2 µM
IC50 [2]: 2 µM

Nc1cc(C2CCCNC2)nc2c(-c3ccccc3)cnn12 (configuration not stated)
IC50 [1]: 4.6 µM
IC50 [2]: 4.5 µM

Nc1cc(C2CCCNC2)nc2c(-c3cccnc3)cnn12 (configuration not stated)
IC50 [2]: 0.54 µM

Cn1cc(-c2cnn3c(NCc4cccnc4)cc(C4CCCNC4)nc23)cn1 (configuration not stated)
IC50 [1]: > 50 µM
IC50 [2]: 0.41 µM

Cn1cc(-c2cnn3c(N)cc(C4CCCNC4)nc23)cn1 (configuration not stated)
Ratio IC50 [3]: 100
IC50 [1]: 6.1 µM
IC50 [2]: 0.06 µM

Cn1cc(-c2cnn3c(NC(C)(C)C)cc(C4CCCNC4)nc23)cn1 (configuration not stated)
IC50 [1]: > 50 µM
IC50 [2]: 5 µM

Cn1cc(-c2cnn3c(Nc4ccccc4)cc(C4CCCNC4)nc23)cn1 (configuration not stated)
IC50 [1]: > 50 µM
IC50 [2]: 0.087 µM

Cn1cc(-c2cnn3c(NC4CCNCC4)cc(C4CCCNC4)nc23)cn1 (configuration not stated)
IC50 [1]: > 50 µM
IC50 [2]: 6.8 µM

Cn1cc(-c2cnn3c(Nc4nccs4)cc(C4CCCNC4)nc23)cn1 (configuration not stated)
IC50 [1]: > 50 µM
IC50 [2]: 0.028 µM

CCc1cnn2c(N)cc(C3CCCNC3)nc12 (configuration not stated)
IC50 [1]: 0.27 µM
IC50 [2]: 9.4 µM

CCn1nccc1Nc1cc(C2CCCNC2)nc2c(-c3cnn(C)c3)cnn12 (configuration not stated)
IC50 [2]: 34 µM

Nc1cc(C2CCCNC2)nc2c(-c3cncnc3)cnn12 (configuration not stated)
IC50 [1]: 5.4 µM
IC50 [2]: 0.28 µM

[O-][n+]1cccc(CNc2cc(-c3ccccc3F)nc3c(Br)cnn23)c1
IC50 [1]: 0.013 µM
IC50 [2]: > 50 µM

CCNc1cc(C2CCCNC2)nc2c(-c3cnn(C)c3)cnn12 (configuration not stated)
IC50 [1]: > 50 µM
IC50 [2]: 0.48 µM

Nc1cc(C2CCCNC2)nc2c(-c3ccns3)cnn12 (configuration not stated)
IC50 [1]: 0.79 µM
IC50 [2]: 0.07 µM

C/C=C/c1cnn2c(N)cc(C3CCCNC3)nc12 (configuration not stated)
IC50 [1]: 0.71 µM
IC50 [2]: 5.1 µM

CCOC(=O)c1ccc(Nc2cc(C3CCCNC3)nc3c(-c4cnn(C)c4)cnn23)cc1 (configuration not stated)
IC50 [1]: > 50 µM
IC50 [2]: 0.051 µM

Nc1cc(C2CCCNC2)nc2c(-c3cccc(O)c3)cnn12 (configuration not stated)
IC50 [1]: 0.64 µM
IC50 [2]: 1.7 µM

Cn1cc(-c2cnn3c(NCc4ccccc4)cc(C4CCCNC4)nc23)cn1 (configuration not stated)
IC50 [2]: 1 µM

Cn1cc(-c2cnn3c(NC4CCCCC4)cc(C4CCCNC4)nc23)cn1 (configuration not stated)
IC50 [1]: > 50 µM
IC50 [2]: 1.5 µM

Nc1cc(C2CCCNC2)nc2c(Br)cnn12 (configuration not stated)
IC50 [1]: 0.086 µM
IC50 [2]: 1.08 µM

Nc1cc(-c2ccccc2)nc2c(Br)cnn12
IC50 [1]: 0.25 µM
IC50 [2]: 2.9 µM
